# Tests used:
# [1] = system: mouse sciatic nerve; conditions: cited from earlier work
# [2] = system: muscle strength of mice; conditions: mouse, in vivo
SMILES,concentration necessary for similar inhibitory effect on mouse sciatic nerve [1],time to decrease of 50% of the relative strength [2]
CCN(CC)CC(=O)Nc1c(C)cccc1C [lidocaine],Millimolar concentrations,–
CCN(CC)CCOC(=O)c1ccc(N)cc1 [procaine],–,~10 min
